ChEMBL document CHEMBL1126502, “Enhancement of binding of quaternary ammonium derivatives of chlorpromaxine to dopamine D-2 receptors by the addition of a H-bonding group” (Bioorg Med Chem Lett, 1993)

target: D(2) dopamine receptor (Rattus norvegicus, UniProt P61169); assay: Tested for Competitive binding inhibition of [3H]spiperone to Dopamine receptor D2 in rat striatal membrane.; assay type: cell membranes
Sequence (P61169 whole entry): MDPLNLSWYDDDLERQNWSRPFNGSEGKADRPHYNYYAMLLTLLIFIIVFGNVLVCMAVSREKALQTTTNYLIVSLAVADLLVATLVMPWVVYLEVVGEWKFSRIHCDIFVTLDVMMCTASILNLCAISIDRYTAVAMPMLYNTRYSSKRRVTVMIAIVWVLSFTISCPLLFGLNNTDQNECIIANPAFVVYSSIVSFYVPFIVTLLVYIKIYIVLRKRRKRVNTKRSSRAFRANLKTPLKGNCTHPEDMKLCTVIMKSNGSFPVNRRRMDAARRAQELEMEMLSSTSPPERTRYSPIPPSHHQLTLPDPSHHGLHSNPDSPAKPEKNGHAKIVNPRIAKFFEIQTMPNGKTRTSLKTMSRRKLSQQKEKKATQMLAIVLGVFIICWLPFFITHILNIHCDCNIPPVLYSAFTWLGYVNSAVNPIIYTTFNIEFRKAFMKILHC

Row | Ki | Structure (SMILES)
1 | 4.88 µM | C[N+](C)(C)NCCN1c2ccccc2Sc2ccc(Cl)cc21
2 | 0.82 µM | C[N+](C)(N)CCCN1c2ccccc2Sc2ccc(Cl)cc21
3 | 8.57 µM | C[N+](C)(C)CCCN1c2ccccc2Sc2ccc(Cl)cc21
